LDH release cytotoxicity data for 18 molecules are collected here from the supplement of paper PMC7840683.

The test concerns HepaRG. Briefly: LDH release cytotoxicity, % of total lysis control; higher = more cytotoxic. As to conditions: 48 h. An outline of the steps:
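Single-lot HepaRG cells in collagen I-coated 96-well plates were treated for 48 h in serum-free induction medium containing 0.5% DMSO with test chemicals in eight-point half-log series up to 100 µM. For total lysis, wells received 0.1% Triton X. LDH in 50 µL spent medium was assayed by resorufin fluorescence with CytoTox-ONE. Percent cytotoxicity was normalized to the on-plate vehicle and total lysis controls, with duplicates averaged.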

± gives the standard deviation of the averaged measurements.

Turning to `O=C(O)c1ccccc1` [Sodium benzoate], the LDH release cytotoxicity (0.031623 µM) was found to be 0.689 ± 0.63%; the LDH release cytotoxicity (0.1 µM) was -2.13 ± 1.3%; the LDH release cytotoxicity (0.316228 µM) is -2.23 ± 0.31%; the LDH release cytotoxicity (1 µM) is -3.15 ± 0.39%; the LDH release cytotoxicity (3.16228 µM) is -2.88 ± 0.63%; the LDH release cytotoxicity (10 µM) was -2.37 ± 0.27%. The LDH release cytotoxicity (31.6228 µM) is -1.36 ± 0.096% and the LDH release cytotoxicity (100 µM) was -0.292 ± 1.2%.

As to `CC1=C(C(=O)Nc2ccccc2)SCCO1` [Carboxin], the LDH release cytotoxicity runs as follows: (0.03162 µM) -0.0118 ± 0.68%; (0.1 µM) -0.836 ± 2.2%; (0.3162278 µM) -1.79 ± 0.24%; (1 µM) -0.232 ± 1.3%; (3.16228 µM) -1.1 ± 0.12%; (10 µM) -0.0461 ± 0.17%. For the same molecule, the LDH release cytotoxicity is, setting by setting: (31.6228 µM) 3.07 ± 1.5%; (100 µM) 8.14 ± 2.8%.

Consider `CCOP(=S)(OCC)OC(Cl)C(Cl)(Cl)Cl` (centres undefined) [Chlorethoxyfos], for which the LDH release cytotoxicity is, setting by setting: (0.03162 µM) -1.98 ± 0.044%; (0.1 µM) -1.72 ± 0.32%; (0.3162278 µM) -0.757 ± 0.55%; (1 µM) -2.38 ± 0.29%; (3.16228 µM) -1.72 ± 0.38%; (10 µM) -0.842 ± 0.087%. For the same molecule, the LDH release cytotoxicity (31.6228 µM) was -1.18 ± 0.36% and the LDH release cytotoxicity (100 µM) was -1.1 ± 0.44%.

`CSc1ccc(Oc2ccc(S(N)(=O)=O)cc2CN(C)C)cc1C`: the LDH release cytotoxicity by setting is: (0.03162 µM) -1.53 ± 0.56%; (0.1 µM) -2.12 ± 0.38%; (0.3162278 µM) -3.24 ± 1%; (1 µM) -3.17 ± 0.95%; (3.16228 µM) -2.65 ± 0.17%; (10 µM) -1.44 ± 0.31%. Moreover, the LDH release cytotoxicity by setting is: (31.6228 µM) -1.38 ± 0.35%; (100 µM) 13.7 ± 1.8%.

For the molecule `CC(C)(c1ccccc1)c1ccc(O)c(C(C)(C)c2ccccc2)c1` [2,4-Bis(1-methyl-1-phenylethyl)phenol], the LDH release cytotoxicity reads like this: (0.03162 µM) -0.358 ± 0.3%; (0.1 µM) -1.13 ± 0.14%; (0.3162278 µM) -0.577 ± 0.043%; (1 µM) -1.2 ± 1.5%; (3.16228 µM) -1.41 ± 0.08%; (10 µM) -0.479 ± 0.49%. In addition, the LDH release cytotoxicity runs as follows: (31.6228 µM) -0.0613 ± 0.39%; (100 µM) 0.487 ± 0.24%.

Consider `Cc1cc(C)c(O)c(C)c1` [2,4,6-Trimethylphenol], for which the LDH release cytotoxicity runs as follows: (0.03162 µM) -0.941 ± 0.86%; (0.1 µM) -0.527 ± 0.093%; (0.3162278 µM) -0.0601 ± 1%; (1 µM) -1.16 ± 0.46%; (3.16228 µM) -0.619 ± 0.33%; (10 µM) -0.296 ± 0.75%. For the same molecule, the LDH release cytotoxicity (31.6228 µM) was found to be 0.116 ± 0.41% and the LDH release cytotoxicity (100 µM) came to 0.371 ± 1.2%.

`CCC1CC(N(Cc2cc(C(F)(F)F)cc(C(F)(F)F)c2)C(C)=O)c2cc(C(F)(F)F)ccc2N1C(=O)OC(C)C` (centres undefined): the LDH release cytotoxicity is -0.374 ± 0.25% (0.03162 µM); 0.141 ± 0.44% (0.1 µM); -0.658 ± 0.2% (0.3162278 µM); -0.248 ± 0.3% (1 µM); -1.3 ± 0.09% (3.16228 µM); 0.748 ± 0.45% (10 µM). For the same molecule, the LDH release cytotoxicity is, setting by setting: (31.6228 µM) 3.11 ± 0.63%; (100 µM) 7.54 ± 0.85%.

Regarding `ClC1=C(Cl)C2(Cl)C3C4CC(C5OC45)C3C1(Cl)C2(Cl)Cl` (centres undefined) [Endrin], the LDH release cytotoxicity is, setting by setting: (0.03162 µM) -0.958 ± 0.053%; (0.1 µM) -0.149 ± 0.18%; (0.3162278 µM) -0.591 ± 0.61%; (1 µM) -0.635 ± 0.031%; (3.16228 µM) -0.591 ± 0.57%; (10 µM) -0.724 ± 0.2%. In addition, the LDH release cytotoxicity (31.6228 µM) stood at 0.152 ± 0.33% and the LDH release cytotoxicity (100 µM) came to 6.26 ± 0.25%.

Regarding `CC(=O)OCCOCCOCCOC(C)=O` [Triethylene glycol diacetate], the LDH release cytotoxicity reads like this: (0.03162 µM) -2%; (0.1 µM) -1.98 ± 0.077%; (0.3162278 µM) -1.83 ± 0.78%; (1 µM) -1.55 ± 0.41%; (3.16228 µM) 0.0849 ± 2%; (10 µM) -1.35 ± 0.28%. Besides, the LDH release cytotoxicity is, setting by setting: (31.6228 µM) -0.553 ± 0.033%; (100 µM) 1.55 ± 0.07%.

On to `O=C(O)c1cc(N=Nc2ccc(S(=O)(=O)Nc3ccccn3)cc2)ccc1O` [Sulfasalazine], for which the LDH release cytotoxicity is -0.789 ± 0.12% (0.03162 µM); -1.61 ± 0.69% (0.1 µM); -0.498 ± 0.038% (0.3162278 µM); -0.487 ± 0.14% (1 µM); -0.767 ± 0.31% (3.16228 µM); 0.367 ± 0.64% (10 µM). Besides, the LDH release cytotoxicity is, setting by setting: (31.6228 µM) 0.113 ± 1.2%; (100 µM) 1.04 ± 1.2%.

With `c1ccc(OP(Oc2ccccc2)Oc2ccccc2)cc1` [Triphenyl phosphite], the LDH release cytotoxicity is -1.51 ± 2.2% (0.03162 µM); -1.17 ± 0.097% (0.1 µM); -1.23 ± 0.038% (0.3162278 µM); -1.46 ± 0.046% (1 µM); -0.429 ± 0.71% (3.16228 µM); -1.22 ± 0.2% (10 µM). The LDH release cytotoxicity reads like this: (31.6228 µM) -1.26 ± 0.45%; (100 µM) 1.56 ± 0.67%.

For the molecule `O=C(O)C1C(C(=O)O)C2(Cl)C(Cl)=C(Cl)C1(Cl)C2(Cl)Cl` (centres undefined) [Chlorendic acid], the LDH release cytotoxicity by setting is: (0.03162 µM) -0.458 ± 0.46%; (0.1 µM) -0.878 ± 0.64%; (0.3162278 µM) -1.72 ± 0.51%; (1 µM) -1.15 ± 0.69%; (3.16228 µM) -0.967 ± 0.21%; (10 µM) -0.519 ± 0.29%. Moreover, the LDH release cytotoxicity is -0.436 ± 0.8% (31.6228 µM) and 0.638 ± 1.1% (100 µM).

As for `CC(C)c1cccc(C(C)C)c1N1C(=O)c2ccc(O)cc2C1=O` [2-(2,6-Diisopropylphenyl)-5-hydroxy-1H-isoindole-1,3-dione], the LDH release cytotoxicity runs as follows: (0.03162 µM) 0.356 ± 0.042%; (0.1 µM) 0.0666 ± 0.077%; (0.3162278 µM) -0.376 ± 0.57%; (1 µM) -0.99 ± 0.87%; (3.16228 µM) -0.278 ± 0.47%; (10 µM) -0.287 ± 0.3%. Further, the LDH release cytotoxicity is -0.0632 ± 1% (31.6228 µM) and 0.492 ± 1.2% (100 µM).

For `ClC1=C(Cl)C2(Cl)C3C4C=CC(C4)C3C1(Cl)C2(Cl)Cl` (centres undefined) [Aldrin], the LDH release cytotoxicity by setting is: (0.03162 µM) -1.03 ± 0.13%; (0.1 µM) -1.22 ± 0.11%; (0.3162278 µM) -1.42 ± 0.63%; (1 µM) -2.25 ± 0.36%; (3.16228 µM) -1.19 ± 0.49%; (10 µM) -0.76 ± 1.3%. The LDH release cytotoxicity is -1.01 ± 0.71% (31.6228 µM) and 3.93 ± 0.095% (100 µM).

Regarding `CC(=O)[O][Hg][c]1ccccc1` [Phenylmercuric acetate], the LDH release cytotoxicity was -1.79 ± 0.027% (0.03162 µM); -0.0392 ± 0.1% (0.1 µM); 3.3 ± 0.71% (0.3162278 µM); 13.6 ± 5% (1 µM); 23.5 ± 4.7% (3.16228 µM); 45.48 ± 0.45% (10 µM). In addition, the LDH release cytotoxicity (31.6228 µM) was -7.82 ± 0.28% and the LDH release cytotoxicity (100 µM) was -8.63 ± 0.18%.

For the molecule `COCC(C)OCC(C)O` (centres undefined) [Dipropylene glycol monomethyl ether], the LDH release cytotoxicity (0.03162 µM) is -1.67 ± 0.049%; the LDH release cytotoxicity (0.1 µM) is -1.92 ± 0.76%; the LDH release cytotoxicity (0.3162278 µM) is -1.46 ± 0.17%; the LDH release cytotoxicity (1 µM) was -1.8 ± 0.051%; the LDH release cytotoxicity (3.16228 µM) was -1.39 ± 0.54%; the LDH release cytotoxicity (10 µM) was -0.852 ± 0.24%. Besides, the LDH release cytotoxicity runs as follows: (31.6228 µM) 0.852 ± 0.72%; (100 µM) 0.163 ± 0.47%.

Turning to `CN(C)CCO` [Dimethylaminoethanol], the LDH release cytotoxicity was 0.182 ± 0.62% (0.03162 µM); -0.302 ± 1.6% (0.1 µM); -0.0529 ± 0.18% (0.3162278 µM); -1.37 ± 0.049% (1 µM); -1.09 ± 1.8% (3.16228 µM); -1.02 ± 0.62% (10 µM). Besides, the LDH release cytotoxicity is -0.601 ± 0.24% (31.6228 µM) and 1.07 ± 0.52% (100 µM).

With `O=C(O)C(F)(F)C(F)(F)C(F)(F)C(F)(F)C(F)(F)C(F)(F)C(F)(F)C(F)(F)C(F)(F)C(F)(F)F` [Perfluoroundecanoic acid], the LDH release cytotoxicity was -0.896 ± 0.4% (0.0302 µM); -2.14 ± 0.16% (0.0955 µM); -0.462 ± 0.4% (0.301998 µM); -1.31 ± 0.4% (0.955 µM); -1.93 ± 0.38% (3.01998 µM); -1.78 ± 2% (9.55 µM). Also, the LDH release cytotoxicity runs as follows: (30.1998 µM) -0.387 ± 0.52%; (95.5 µM) 1.42 ± 0.46%.
